Read-outs that look alike come from different tables or passages of the source.
Columns and labels:
[1] = test system: all human 5-HT receptor subtypes; test: PRESTO-TANGO arrestin-recruitment assay; type: cell-based; settings: compared with 5-HT1A
Description: The receptor contructs were obtained from Addgene and contain the TEV cleavage site and the tetracycline transactivator (tTA) fused to the C terminus of the receptor. For the assay, constructs were transfected into HTLA cells (kindly provided by Dr. Bryan Roth, University of North Carolina), which express TEV fused-β-Arrestin2 and a tetracycline transactivator-driven luciferase and are necessary for this assay. A day before the assay cells were cultured in DMEM supplemented with 1% dFBS and transfected with 8 μg of DNA per 7 million cells in a 10 cm plate using PEI transfection. The next day, 20,000 cells in 40 μl were then plated in poly-L-lysine-coated clear-bottom 384-well plates in the same media and incubated for at least 5 hr before stimulation. […] After 16-24 hr overnight incubation, media and drug solutions were aspirated and 20 μl per well of BrightGlo reagent (purchased from Promega, after 1:20 dilution) was added per well. The plate was incubated for 20 min at room temperature in the dark before being counted using a MicroBeta TriLux liquid scintillation counter.

[2] = In vivo pharmacokinetics in mice (plasma and brain, subcutaneous); design: species or system mouse; settings: for Kp / Cmax: male, C57BL/6, mouse, sc, 1 mg/kg; for Kp: brain and plasma
Description: Test System: Healthy male C57BL/6 mice (8-12 weeks old) weighing between 20 to 35 g were procured from Global (India). Three mice were housed in each cage. Temperature and humidity were maintained at 22±3° C. and 30-70%, respectively and illumination was controlled to give a sequence of 12 hr light and 12 hr dark cycle. Temperature and humidity were recorded by auto-controlled data logger system. All animals were provided laboratory rodent diet (Envigo Research Private Ltd, Hyderabad, India). Reverse osmosis water treated with UV light was provided ad libitum.
Study Design: Total twenty-seven male mice were used in this study with 3 mice/time point design. Animals were administered subcutaneously […] with solution formulation of compound at the requited dose.
Formulation Preparation: Accurately weighed of the desired compound was taken in a labeled bottle. To this the appropriate amount of normal saline was added, vortexed and followed by addition of 2 mol. equiv. of glacial acetic acid. The above formulation was again vortexed and sonicated for about 1 h with intermittent vortexing to obtain clear solution. The final dose formulation was filtered through 0.45 micron filter. No adverse clinical signs in any animals during study period.
Sample Collection: Blood samples (approximately 60 μL) were collected under light isoflurane anesthesia (Surgivet®) from retro orbital plexus from a set of three mice at 0.083, 0.25, 0.5, 1, 2, 4, 8, and 12 hr. Immediately after blood collection, plasma was harvested by centrifugation at 4000 rpm, 10 min at […] and samples were stored at −70±10° C. until bioanalysis. Following blood collection, immediately animals were sacrificed followed by abdominal vena-cava was cut open and whole body was perfused from heart using 10 mL of normal saline. Brain samples were collected from set of three mice at 0.083, 0.25, 0.5, 1, 2, 4, 8, and 12 hr. After isolation, brain samples were rinsed three times in ice cold normal saline (for 5-10 seconds/rinse using ˜5-10 mL normal saline in disposable petri dish for each rinse) and dried on blotting paper. Brain samples were homogenized using ice-cold phosphate buffer saline (pH-7.4). Total homogenate volume was three times the tissue weight. All homogenates were stored below −70±10° C. until bioanalysis.
Concentrations of the compound in mouse plasma and brain samples were determined by fit for purpose LC-MS/MS method. The sample processing and extraction procedure, chromatographic and mass spectrometric conditions as follows:
Non-Compartmental-Analysis tool of Phoenix WinNonlin® Version 8.0 (Certara, Princeton, NJ, USA) was used to assess the pharmacokinetic parameters. Peak plasma concentration (Cmax) and time for the peak plasma concentration (Tmax) were the observed values. The areas under the concentration time curve (AUClast and AUCinf) were calculated by linear trapezoidal rule. The terminal elimination rate constant, ke was determined by regression analysis of the linear terminal portion of the log plasma concentration-time curve. Tissue-Kps were calculated using Microsoft Excel® (Microsoft Corporation, […], WA, USA).

mice = test: Open field locomotor activity; type: in vivo, mouse
PMAT = molecular target: T1, PMAT (Homo sapiens, UniProt Q7RTT9); test: PMAT uptake inhibition; type: cell-based; settings: compared with 5-HT1A
T1 construct: expressed in transfected cells; host or cells: Flp-In T-Rex cell line (ThermoFisher), tetracycline-induced
T1 sequence (Q7RTT9 1-530): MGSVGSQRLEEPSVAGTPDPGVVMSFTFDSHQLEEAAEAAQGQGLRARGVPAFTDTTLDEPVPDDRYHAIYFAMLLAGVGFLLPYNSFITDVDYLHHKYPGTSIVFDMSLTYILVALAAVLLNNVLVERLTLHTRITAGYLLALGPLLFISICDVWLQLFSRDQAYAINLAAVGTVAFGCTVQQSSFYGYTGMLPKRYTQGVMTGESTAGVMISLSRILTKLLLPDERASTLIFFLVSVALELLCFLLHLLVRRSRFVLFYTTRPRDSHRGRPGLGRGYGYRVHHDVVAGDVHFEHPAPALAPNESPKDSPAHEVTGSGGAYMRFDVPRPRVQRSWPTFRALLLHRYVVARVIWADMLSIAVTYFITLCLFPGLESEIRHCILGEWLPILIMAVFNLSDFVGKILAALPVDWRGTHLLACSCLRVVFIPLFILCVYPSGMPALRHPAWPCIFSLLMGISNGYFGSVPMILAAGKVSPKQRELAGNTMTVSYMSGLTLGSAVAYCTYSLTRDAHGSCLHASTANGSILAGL
Description: Inducible cell lines stably expressing OCT1, OCT2, or PMAT were generated using the Flp-In T-Rex cell line (ThermoFisher) according to manufacturer recommendations. Cells were maintained in DMEM supplemented with 10% FBS, 100 μg/ml hygromycin B (GoldBio), and 10 μg/ml blasticidin (GoldBio). To measure uptake inhibition, cells were seeded into poly-L-lysine coated clear-bottom 384-well plates at a density of 25,000 cells per well in DMEM containing 10% FBS and 2 μg/ml of tetracycline (Sigma) to induce transporter expression. […] Cells were incubated with drug for 30 min at 37° C. Fluorescent substrate was then added to the cells. […] Cells were incubated with respective substrates for an hour at 37° C. OCT2 cells were read directly in a Victor NIVO plate reader using 495 nm excitation and 580 emission filter for 0.1 s. OCT1 and PMAT cells were washed in HBSS supplemented with 20 mM HEPES pH 7.4 before reading in a Victor NIVO plate reader using 435 nm excitation and 480 nm emission filter for 0.1 s.

COc1ccc2[nH]cc(CCN3CCCC3)c2c1F [4-F, 5-MeO-PyrT, 4-Fluoro, 5-methoxypyrrolidinyl-tryptamine]
activity at all other G protein-coupled serotonin receptors [1]: substantially lower activity | Kp ([2]; mouse, 1 mg/kg s.c., read-out: total brain:plasma ratio): 3.3 | Kp ([2]; mouse, 1 mg/kg s.c., read-out: unbound brain:plasma ratio): 0.91 | Cmax ([2]; brain, mouse brain, 1 mg/kg SC, read-out: Total Cmax (ng/mL), Brain): 143 ng/mL | Cmax ([2]; brain, mouse, 1 mg/kg subcutaneous, read-out: Cmax/brain): 143 ng/mL | Cmax ([2]; plasma, mouse plasma, 1 mg/kg SC, read-out: Total Cmax (ng/mL), Plasma): 44 ng/mL | Total AUClast ((hr*ng)/mL), Brain ([2]; mouse brain, 1 mg/kg SC): 128.34 ng·h/mL | time at which brain penetration peaks ([2]; mouse brain, 1 mg/kg s.c.): 30 min | Total AUClast ((hr*ng)/mL), Plasma ([2]; mouse plasma, 1 mg/kg SC): 26.40 ng·h/mL | compound largely cleared within ([2]; mouse, 1 mg/kg s.c.): ≤ 2 h | estimated free drug concentration in the brain at Tmax ([2]; mouse, 1 mg/kg s.c.): ~100 nM | lowest dose producing suppression of locomotion (mice; mice, s.c.): 0.03 mg/kg | sedative effects after WAY-100635 pretreatment (mice; open field, WAY-100635 1 mg/kg s.c. 15 min prior, compound 1 mg/kg s.c.): negates the sedative effects | activity at other neurotransmitter transporters (PMAT) (PMAT): substantially lower activity

— patent US20260034119A1, “5-METHOXY-N,N-[…][…], THEIR […], AND METHODS FOR TREATMENT OF NEUROLOGICAL, […], AND SUBSTANCE USE DISORDERS” (priority 2023, published 2026)
